This test deals with T1, W741C type mutant AR (Homo sapiens, UniProt P10275, DUP77-80/W742C).
T1 construct: expressed in transfected cells; host or cells: Cos-7
Description: Antagonist screening: inhibition of DHT-induced W741C mutant AR transcription activity (luciferase co-transfection). In kind it is cell-based. Particulars: 40 nM DHT + 10 μM Compound A. An excerpt: FIG. 4 is a drawing showing the antagonistic action of Compound A on a W741C type mutant AR. […] Mean±standard error, n=16 for the only-DHT addition group and n=4 for the DHT+Compound A addition group.

T1 sequence (P10275 with tags, fused parts or gaps DUP77-80/W742C): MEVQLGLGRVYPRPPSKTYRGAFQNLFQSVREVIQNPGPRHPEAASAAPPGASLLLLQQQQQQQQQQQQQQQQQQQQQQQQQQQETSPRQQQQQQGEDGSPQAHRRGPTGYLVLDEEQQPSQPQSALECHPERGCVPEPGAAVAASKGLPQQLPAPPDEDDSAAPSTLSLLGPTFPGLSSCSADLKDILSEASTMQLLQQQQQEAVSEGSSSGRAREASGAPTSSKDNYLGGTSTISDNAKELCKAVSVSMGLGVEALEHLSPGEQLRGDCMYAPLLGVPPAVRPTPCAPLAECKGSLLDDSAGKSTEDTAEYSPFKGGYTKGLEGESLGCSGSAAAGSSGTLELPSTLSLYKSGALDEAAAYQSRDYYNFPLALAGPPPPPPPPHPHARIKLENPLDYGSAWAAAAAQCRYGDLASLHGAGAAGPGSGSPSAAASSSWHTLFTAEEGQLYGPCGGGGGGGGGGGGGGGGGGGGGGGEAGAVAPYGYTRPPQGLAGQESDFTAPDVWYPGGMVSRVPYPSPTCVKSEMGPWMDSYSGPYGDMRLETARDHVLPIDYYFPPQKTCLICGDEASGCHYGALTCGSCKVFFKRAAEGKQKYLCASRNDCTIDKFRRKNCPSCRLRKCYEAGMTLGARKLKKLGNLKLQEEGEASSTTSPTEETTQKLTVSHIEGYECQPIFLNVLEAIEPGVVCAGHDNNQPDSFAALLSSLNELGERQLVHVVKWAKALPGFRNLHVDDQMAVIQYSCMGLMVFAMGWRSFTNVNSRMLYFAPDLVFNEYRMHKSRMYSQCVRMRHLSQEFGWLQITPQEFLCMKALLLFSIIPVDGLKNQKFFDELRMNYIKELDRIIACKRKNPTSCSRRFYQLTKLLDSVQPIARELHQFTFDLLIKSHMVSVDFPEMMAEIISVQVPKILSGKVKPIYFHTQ

Consider `CCOC(=O)c1c(C)[nH]c(C)c1-c1ccc([N+](=O)[O-])cc1` [Compound A, ethyl 2,5-dimethyl-4-(4-nitrophenyl)-1H-pyrrole-3-carboxylate], for which the “action on W741C type mutant AR transcription activity of DHT” value is “antagonist action”.

The values above are taken from US20050181462A1, “Mutant androgen receptor, cancer cells expressing the same, a method of producing them and use thereof” (priority 2002, published 2005).
